Values of other authors as cited in patent US20050004194A1, “Use of organic compounds” (priority 2003, published 2005).

How the values were obtained:
[1] = elderly heart failure patients, losartan versus captopril 50 mg t.i.d.
[2] = SAVE trial, patients after MI, captopril versus placebo

Row | SMILES | primary objective: tolerability and increase in serum creatinine [1] | all-cause mortality ([1]; 722 patients, based on only 49 deaths) | left ventricular remodeling [2]
1 | CCCCc1nc(Cl)c(CO)n1Cc1ccc(-c2ccccc2-c2nn[nH]n2)cc1 [losartan] | no significant differences | statistically significant reduction | 
2 | C[C@H](CS)C(=O)N1CCC[C@H]1C(=O)O [captopril] |  |  | improvement
